Legend:
[1] = tested on: NG108-15 cells (endogenous glutamate receptor); experiment: Intracellular potential recording of cultured nerve cells with C-M magnet electrode (glutamate response); format: cell-based; conditions: final external fluid concentration 800 μM
Experimental: NG108-15 cells were used for the purpose of showing that recording is possible from cultured nerve cells. NG108-15 cells (neuroblastoma-glioma hybrid cells) were cultured in a culture medium containing DMEM (Sigma-Aldrich), HAT supplement (Thermofisher) and 10% FBS (Biowest). NG108-15 was seeded on a cover glass that was coated with 0.1% Polyethyleneimine (pH8.4, 150 mM Sodium Tetra-Borate (Wako)), and cultured in the culture medium, in which FBS concentration was reduced to 5% from the above culture medium, and the nerve differentiation was induced by adding 500 μM Ibuprofen (Wako). […]
PEI and PEG-gold coated magnetic nanoparticles were mixed and left at room temperature for 3 hours. This mixed solution is moved to the cell-adhesive surface of the neodymium magnet and left for additional 15 minutes to magnetically bond the gold nanoparticles to the neodymium magnet electrode.
The above nanoparticle-bonding magnet electrode was placed on the cultured cells placed on an iron plate. […]
In addition to the spontaneous action potential, the following experiment was conducted to confirm whether the neuronal activity by the neurotransmitter glutamate can be recorded. […] Glutamic acid was administered to the extracellular fluid (final external fluid concentration 800 μM), and the response mediated by glutamate receptors was recorded. […]

[2] = tested on: NG108-15 cells; experiment: Intracellular potential recording in differentiated cultured nerve cells with MagEle not isolated from external fluid; format: cell-based; conditions: 3 mM; after 20 μM Veratridine
Experimental: In this experiment, the cultured nerve cells (NG108-15 cells) used in Example 3 were induced and differentiated into nerves under the same differentiation conditions as in the experiment example 3. In the same manner as in Example 3, the MagEle (magnet electrode) is moved from above the target cell toward the cell, and the conductive gold-coated magnetic nanoparticles adsorbed on the MagEle are adhered to the cell membrane to penetrate it. Then, the intracellular potential was measured by connecting the MagEle to the (+) pole and a conductor provided on an insulator (parafilm film) that completely covers the upper surface of the MagEle to the ground. At that time, although the insulator completely covered the top and sides of the (+) pole MagEle, the surface facing the cover glass, to which the cells adhere was not covered, and the cells were not isolated from the external fluid (FIG. 19).
The NG108-15 cells were differentiated by culturing for 3 weeks in DMEM/HAT medium containing 2% FBS supplemented with Forskolin (10 μM).

| SMILES | time for glutamate-induced membrane potential change to return to baseline ([1]; decay due to desensitization) | membrane potential response mediated by glutamate receptors ([1]; neural differentiation induction for 2 days) | spontaneous action potential induced by Veratridine [2] |
| --- | --- | --- | --- |
| N[C@@H](CCC(=O)O)C(=O)O [Glutamate, Glutamic acid] | about 90 seconds | depolarization (upward change) response of the membrane potential |  |
| CCN(CC)CC(=O)Nc1c(C)cccc1C [Lidocaine] |  |  | suppressed |
